The values that follow come from ChEMBL document CHEMBL2151021, “Novel amide- and sulfonamide-based aromatic ethanolamines: effects of various substituents on the inhibition of acid and neutral ceramidases” (Bioorg Med Chem, 2012).

Experiment [1] deals with T1, Acid ceramidase (Homo sapiens) (UniProt Q13510).
T1 sequence (whole entry): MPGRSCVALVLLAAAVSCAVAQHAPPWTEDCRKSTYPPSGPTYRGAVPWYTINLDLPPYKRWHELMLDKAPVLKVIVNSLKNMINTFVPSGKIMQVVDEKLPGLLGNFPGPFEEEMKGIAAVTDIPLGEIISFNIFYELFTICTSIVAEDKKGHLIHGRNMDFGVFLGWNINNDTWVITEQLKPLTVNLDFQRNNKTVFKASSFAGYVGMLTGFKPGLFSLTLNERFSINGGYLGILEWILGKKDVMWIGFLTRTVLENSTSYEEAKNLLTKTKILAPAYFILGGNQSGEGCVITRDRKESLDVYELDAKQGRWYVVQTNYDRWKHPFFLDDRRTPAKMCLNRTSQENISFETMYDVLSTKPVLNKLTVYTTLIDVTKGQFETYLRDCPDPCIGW
Nature of the experiment: Inhibition of recombinant human aCDase expressed in Sf9 cells using fluorescently-labeled acyl-NBD-C12-ceramide as substrate at 80 uM after 8 hrs by fluorescence assay.

Experiment [2] has as its target Neutral ceramidase (Homo sapiens) (UniProt Q9NR71). Nature of the experiment: Inhibition of recombinant human nCDase expressed in Sf9 cells using fluorescently-labeled acyl-NBD-C12-ceramide as substrate at 80 uM after 2 hrs by fluorescence assay.
The target of experiment [3] is T2, Acid ceramidase (Homo sapiens, UniProt Q13510).
T2 sequence (Q13510 whole entry): T1 sequence (whole entry)
Nature of the experiment: Inhibition of aCDase expressed in human HL60 cell extract. It counts as cell-free, HL-60.

Experiment [4] concerns the target Neutral ceramidase (Homo sapiens) (UniProt Q9NR71). Briefly: Activity of recombinant human nCDase expressed in Sf9 cells at 300 uM after 2 hrs by fluorescence assay.
Experiment [5] addresses T2, Acid ceramidase. Nature of the experiment: Inhibition of aCDase.

pIC50: −log10 of the molar value. Active and inactive are the calls of the source. The rule behind the calls is not given here.

Neutral ceramidase (Homo sapiens), sequence (Q9NR71 whole entry): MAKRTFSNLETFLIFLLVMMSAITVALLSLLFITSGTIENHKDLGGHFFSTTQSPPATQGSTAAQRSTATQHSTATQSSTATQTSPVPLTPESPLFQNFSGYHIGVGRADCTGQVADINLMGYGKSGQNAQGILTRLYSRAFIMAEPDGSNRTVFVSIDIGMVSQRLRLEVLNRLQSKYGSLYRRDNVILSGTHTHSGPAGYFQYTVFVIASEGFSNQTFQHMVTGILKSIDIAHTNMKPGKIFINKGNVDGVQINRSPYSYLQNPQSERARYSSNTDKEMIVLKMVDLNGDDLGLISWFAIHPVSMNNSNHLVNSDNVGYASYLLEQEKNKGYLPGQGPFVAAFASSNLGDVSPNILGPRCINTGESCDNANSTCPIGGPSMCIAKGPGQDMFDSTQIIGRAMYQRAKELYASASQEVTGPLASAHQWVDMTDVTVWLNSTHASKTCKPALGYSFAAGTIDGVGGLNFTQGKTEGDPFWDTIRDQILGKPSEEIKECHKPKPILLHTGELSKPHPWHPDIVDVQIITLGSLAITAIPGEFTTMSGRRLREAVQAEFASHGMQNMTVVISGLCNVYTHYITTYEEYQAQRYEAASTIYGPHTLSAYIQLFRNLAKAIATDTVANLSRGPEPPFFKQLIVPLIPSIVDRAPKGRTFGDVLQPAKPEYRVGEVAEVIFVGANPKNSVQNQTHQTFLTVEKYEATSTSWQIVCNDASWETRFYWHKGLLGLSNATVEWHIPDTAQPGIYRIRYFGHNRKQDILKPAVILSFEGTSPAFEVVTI

For the compound `CCCCCCCCCCCCCC(=O)NCC(=O)c1cccc(C)c1`, the inhibition entry in experiment [1] and in experiment [2] was “Active” throughout.

In the case of `CCCCCCCCCCCCCC(=O)NCC(O)c1cccc(C)c1` (racemic), the inhibition entry in experiment [1] was “Active”.

For `CCCCCCCCCCCCCC(=O)NCC(O)c1ccc(C)cc1` (single isomer, unassigned; (-)), the inhibition result in experiment [1] and in experiment [2] was “Active” in each case.

On to `CCCCCCCCCCCCCC(=O)NCC(O)c1ccncc1` (racemic), for which the inhibition entry in experiment [1] and in experiment [2] was “Active” in each case.

Turning to `CCCCCCCCCCCCS(=O)(=O)NCC(O)c1ccncc1` (racemic), the inhibition entry in experiment [1] and in experiment [2] was “Active” each time.

As for `CCCCCCCCCCCCCC(=O)NCC(O)c1cccc(O)c1` (racemic), the inhibition entry in experiment [1] is “Active”.

Take `CCCCCCCCCCCCS(=O)(=O)NCC(O)c1ccccc1` (racemic): the inhibition entry in experiment [1] and in experiment [2] was “Active” each time.

As to `CCCCCCCCCCCCCC(=O)NCC(O)c1ccc(CCCC)cc1` (racemic), the inhibition entry in experiment [1] is “inactive”.

As for `CCCCCCCCCCCCCC(=O)N[C@H](C)[C@@H](O)c1ccccc1`, the inhibition entry in experiment [1] is “Active”. In addition, on Acid ceramidase [3], the pIC50 – broadly, −log10 of the IC50, conventionally taken in molar units – was 6.00.

Consider `CCCCCCCCCCCCCC(=O)NCC(O)c1ccccc1` (racemic), for which the inhibition entry in experiment [1] was “Active”.

As for `CCCCCCCCCCCCCC(=O)NCC(O)c1ccc(OC)cc1` (racemic), the inhibition result in experiment [1] was “inactive”. Also, in experiment [2], the inhibition entry is “Active”.

For the compound `CCCCCCCCCCCCCC(=O)NCC(O)c1ccc(C)cc1` (stereo in doubt), the inhibition entry in experiment [1] and in experiment [2] was “Active” each time.

Consider `CCCCCCCCCCCCS(=O)(=O)NCC(O)c1ccc(C)cc1` (racemic), for which the inhibition result in experiment [1] and in experiment [2] was “Active” in each case. The outcome in experiment [4] was inactive.

On to `CCCCCCCCCCCCCC(=O)NCC(O)c1ccc(CCC)cc1` (racemic), for which, in experiment [1], the inhibition entry was “Active”. Besides, the inhibition entry in experiment [2] is “inactive”.

In the case of `CCCCCCCCCCCCCC(=O)NCC(O)c1cccc(OC)c1` (racemic), the inhibition entry in experiment [1] is “inactive”. For the same compound, the inhibition result in experiment [2] is “Active”.

In the case of `CCCCCCCCCCCCS(=O)(=O)NCC(O)c1cccnc1` (racemic), the inhibition entry in experiment [1] and in experiment [2] was “Active” each time.

Take `CCCCCCCCCCCCCC(=O)NCC(O)c1ccc(C)cc1` (racemic): the inhibition entry in experiment [1] and in experiment [2] was “Active” throughout. The outcome in experiment [4] was inactive.

For the compound `CCCCCCCCCCCCS(=O)(=O)N[C@H](CO)[C@H](O)c1ccc([N+](=O)[O-])cc1`, in experiment [1], the inhibition entry is “Active”.

For `CCCCCCCCCCCCCC(=O)NCC(O)c1cccnc1` (racemic), the inhibition entry in experiment [1] and in experiment [2] was “Active” in each case.

With `CCCCCCCCCCCCCC(=O)NCC(O)c1ccc(O)cc1` (racemic), in experiment [1], the inhibition result was “Active”.

With `CCCCCCCCCCCCS(=O)(=O)N[C@H](C)[C@@H](O)c1ccccc1`, the inhibition entry in experiment [1] and in experiment [2] was “Active” in each case.

As for `CCCCCCCCCCCCCC(=O)NCC(O)c1ccc(CC)cc1` (racemic), the inhibition result in experiment [1] is “Active”.

For the compound `CCCCCCCCCCCCCC(=O)N[C@H](CO)[C@H](O)c1ccc([N+](=O)[O-])cc1`, the inhibition entry in experiment [1] was “Active”. On Acid ceramidase [5], the negative-log IC50 (pIC50) was 5.00.

Take `CCCCCCCCCCCCCC(=O)NCC(O)c1ccc(C(C)(C)C)cc1` (racemic): the inhibition result in experiment [1] is “Active”. In addition, the inhibition entry in experiment [2] is “inactive”.

Consider `CCCCCCCCCCCCCC(=O)NCC(=O)c1ccc(C)cc1`, for which the inhibition entry in experiment [1] and in experiment [2] was “Active” throughout.
